In patent publication US4696920A, “Certain 2-substituted 1,3-propylidenediphosphonate derivatives, pharmaceutical compositions containing them and their use as antihypertensive agents” (priority 1984, dated 1987):

What was measured:
[1] = system: blood pressure in hypertensive rats; assay: Oral hypotensive activity in hypertensive rats (tail cuff); type: in vivo, rat (spontaneously hypertensive, SHR); details: Table 5
Method: Some selected compounds were given orally to conscious SHR rats and blood pressure was monitored using the tail cuff method. A marked and sustained hypotensive activity was measured in all treated rats. Results are given 2 hours post dose (Table 5). These studies illustrate the obvious potential use of orally administered 1,3-diphosphonates for the clinical treatment of hypertension in man.

[2] = system: [^3 H]-PN-200 110 (dihydropyridine) binding site of calcium channel, rat brain membranes; assay: [^3 H]-PN-200 110 binding to rat brain membranes; parameters: species or system rat (male Wistar); details: for Specifically bound [^3 H]-PN-200 110 % of control value: compound concentration 1.0 μM; for Specifically bound [^3 H]-PN-200 110 % of control value / Bound ^3 H at 1.0 μM / Bound ^3 H at 0.1 μM: Table 1b; for Bound ^3 H at 1.0 μM / Bound ^3 H at 0.1 μM: ratio of [^3 H]-PN-200 110 bound at 1.0 and 0.1 μM compound; for potency in [^3 H]-PN200 110 binding (in words): text on Table 1b
Method: (§1) Diltiazem hydrochloride was a generous gift from Goedecke A. G.
Water insoluble compounds were dissolved in absolute ethanol to give 10 mM or 2.5 mM stock solutions. Suitable dilutions were made in 50 mM Tris-HCl buffer (pH 7.4) containing 150 mM NaCl and 1 mM CaCl2. The ethanol concentration in the final assay never exceeded 0.1%.
(§2) The purity of the radioligand and of the various agents tested was monitored by thin layer chromatography on silica gel plates.
(§3) The following procedure was adapted from Bellemann et al (Proc. Nat. Acad. Sci. 80, 2356, 1983), and Gould et al (Proc. Nat. Acad. Sci. 79, 3656, 1982).
(§4) Adult male Wistar rats weighing 250-300 g were anesthetized with carbon dioxide prior to decapitation. The brain was removed then immersed in ice-cold 0.32M sucrose and washed 2-3 times with fresh solution. Cerebral cortex was minced and homogenized (Potter-Elvehjem homogenizer) in 10 volumes of ice-cold sucrose solution. The homogenate was centrifuged (4° C.) at 1000×g for 15 minutes. The resulting supernatant was then centrifuged at 90000×g (30 minutes) and the pellet was washed twice with 20 ml ice-cold 50 mM Tris-HCl pH 7.4.
(§5) The final pellet was resuspended in 50 mM Tris-HCl pH 7.4/150 mM NaCl/1 mM CaCl2 to give a protein concentration of 4 mg/ml.
(§6) The membrane suspension was kept on ice until used. Binding assays were performed in subdued light to prevent dihydropyridine breakdown. Membrane protein (400 μg/tube) was incubated in 50 mM Tris-HCl buffer (pH 7.4)/150 mM NaCl/1 mM CaCl2 with the indicated concentrations of radioligand and test compounds or known calcium antagonists, in a total volume of 2 ml. After the indicated time intervals, the reaction was terminated by rapid filtration through Whatman GF/B glass fiber filters (2.4 cm diameter) on a Millipore filter holder. The assay tube was rinsed with 2 ml ice-cold 50 mM Tris-HCl pH (7.4) and the precipitate was further washed with 2×5 ml of the same buffer.
(§7) Filters were dried under a heat lamp and were extracted with 10 ml of liquid scintillation cocktail (Toluene/Triton X-100, 2/1 containing 4 g Omnifluor/1) prior to tritium determination at 48% counting efficiency.
(§8) Assays were performed in duplicate or triplicate.
(§9) Data were expressed as percent specific [^3 H]-Nitrendipine binding relative to the established control value.
(§10) Compound activity in the [^3 H]-Nitrendipine binding assay was evaluated by using the following criteria:
(§11) 1. [^3 H]-Nitrendipine binding at 1.0 μM compound final concentration was either below 95% or above 105% of the control value determined in absence of compound.
2. The ratio obtained by dividing the amount of specifically found [^3 H]-Nitrendipine at 1.0 μM compound final concentration by the value obtained at 0.1 μM test compound, was smaller than 0.9 or greater than 1.1. This ratio is indicative of a dose response relationship within the compound concentration range tested, when the value differs appreciably from 1.0.
Note: In some experiments [^3 H]-PN200 110, a new and commercially available specific dihydropyridine was used instead of [^3 H]-Nitrendipine.

[3] = system: mean blood pressure in rat; assay: Acute intravenous hypotensive activity in anesthetized rats; type: in vivo, rat (male Wistar); details: for inhibition in vivo at 0.5 mg/kg: Rattus norvegicus, iv, read-out: Decrease in mean blood pressure (% pretest)
Method: Male Wistar rats were anesthetized with Pentobarbital (Nembutal, 60 mg/kg i.p.) and heparinized (5 mg/kg i.p.). After tracheotomy the right carotid was cannulated (catheter PE 50); blood pressure was measured with a pressure transducer (Statham P 23 db) and recorded on a polygraph (Beckman).
Animals received 0.5 and 1.5 mg/kg of the test compounds. Less than 100 μl of test compounds dissolved in 0.9% saline were injected in the jugular vein. Highly water insoluble compounds were suspended in 2% Tween-80. Injection of the vehicle alone had no detectable hypotensive effect.
Results presented are expressed as percent decrease in initial mean blood pressure (Mean±SEM).

[4] = system: rat trachea contraction induced by KCl depolarization; assay: KCl-induced rat trachea contraction; parameters: species or system rat (male SHR, Okamoto-Aoki); details: for activity at 1 µM: Rattus norvegicus, 40 min, read-out: Contraction (% max.); for activity on KCl-induced trachea contraction (in words): final concentration 1.0 μM
Method: Spontaneously hypertensive male rats (SHR) Okamoto-Aoki Strain, weighing 300-400 g were used in this study. They were killed by bleeding after Pentobarbital anesthesia (Nembutal, Abbott Co, 40 mg/kg). Their entire trachea was quickly removed and dissected free of fat and connective tissue in Krebs-Ringer solution. A strip (4 mm×40 mm), obtained by spirally cutting the trachea, was immediately suspended in a 50 ml Krebs-Ringer solution and continuously bubbled with a O2 /CO2 (95/5) mixture. Bath temperature was maintained at 37±1° C. The composition (mM) of the Krebs-Ringer solution modified by Nghiem, was as follows: NaCl, (118.0); KCl, (4.7); CaCl2, (2.5); MgCl2, (1.18); NaHCO3, (12.5); KH2 P04, (1.18); glucose, (5.5) in bidistilled water (pH 7.4). Each strip was equilibrated under initial tension (1.5-2 g) for 1-2 hours and the bath solution changed every 30 min. A contractile or relaxant response was isometrically measured with a force-displacement transducer (Ugo-Basile) and recorded on a polygraph (Beckman).
After equilibration, KCl was added to the bath at 65 mM final concentration. This concentration produced maximum trachea contraction. Under these conditions, a plateau phase showing a tonic sustained contraction was reached within 30 minutes. Drugs were added 30 minutes after the plateau phase has been reached (final concentration=1.0 μM). […] Recordings of the residual trachea contraction were made 40 minutes after drug addition to the bathing fluid. The initial KCl induced contraction was taken as the maximum KCl response (100%). Results were expressed as % of maximal contraction. Nifedipine, Prenylamine, Flunarizine and Diltiazem were used as reference standards to validate this assay.
All 1,3-diphosphonates and drugs were dissolved in saline (0.9% NaCl) except when water insoluble, then the compounds were dissolved in 2% ethanol. The final concentration of ethanol used has been shown not to interfere with the assay.
Results are expressed as mean values±SEM, the Student's t-test was used for statistical analysis.

[5] = system: calcium channel binding site for [^3 H]-Nitrendipine (rat brain membranes); assay: [^3 H]-Nitrendipine binding to rat brain membranes; parameters: species or system rat (male Wistar); details: Table 1a; for Specifically bound [^3 H]-Nitrendipine % of control value: compound concentration 1.0 μM; for Bound ^3 H at 1.0 μM / Bound ^3 H at 0.1 μM: ratio of [^3 H]-Nitrendipine bound at 1.0 and 0.1 μM compound
Method: as §1
Suitable dilutions were made in 50 mM Tris-HCl buffer (pH 7.4) containing 150 mM NaCl and 1 mM CaCl2. The ethanol concentration in the final assay never exceeded 0.1%.
as §2, §3, §4, §5, §6, §7, §8, §9, §10, §11
2. […] This ratio is indicative of a dose response relationship within the compound concentration range tested, when the value differs appreciably from 1.0.

[6] = system: isolated rat atrium (atrium rate); assay: Chronotropic activity in isolated rat atrium; parameters: species or system rat (male SHR, Okamoto-Aoki); details: 5.0 × 10^-6 M, mean ± SEM, read-out: Decrease in atrium rate (% pretest)
Method: Spontaneously hypertensive male rats (SHR) (Okamoto-Aoki strain) were anesthetized with Pentobarbital (Nembutal Abbott, 60 mg/kg, i.p.). The hearts were quickly excised and both atria were dissected free from adjacent cardiac tissues. The atria were immediatly placed in a 50 ml Krebs-Ringer bath with the following composition (mM): NaCl, (120.0); KCl, (5.63); CaCl2, (2.0); MgCl2, (2.10); NaHCO3, (25.0); Glucose, (9.7) (pH 7.4). The solution was continuously bubbled with a O2 /CO2 mixture (95/5) and maintained at 37±1° C. The atrium was fixed to an optical displacement transducer (IITC, USA) under a resting tension of 1 g in order to measure atrial rate. The preparation was allowed to equilibrate for 40 min then cumulative dose-response curves were determined for each test compound (0.5-5 μMole/l). Maximum effect was normally obtained within 30-40 min. for each concentration.
Stock solutions of the 1,3-diphosphonates were generally prepared in 0.9% saline and water insoluble compounds were prepared in 50% ethanol. […] When tested at the concentration of 5.0×10^-6 M a decrease in atrium rate of more than 5% was considered as significant.
All data are presented as % decrease of initial atrium rate (mean values±SEM). A potent negative chronotropic effect was found with all compounds tested (table 3).

SMILES | oral hypotensive activity (in words) [1] | Specifically bound [^3 H]-PN-200 110 % of control value [2] | Bound ^3 H at 1.0 μM / Bound ^3 H at 0.1 μM [2] | inhibition in vivo at 0.5 mg/kg [3] [%] | hypotensive activity (in words) ([3]; acute i.v., Table 4) | activity at 1 µM [4] [%] | activity on KCl-induced trachea contraction (in words) [4] | modulation of [^3 H]-Nitrendipine binding (in words) [5] | Specifically bound [^3 H]-Nitrendipine % of control value [5] | Bound ^3 H at 1.0 μM / Bound ^3 H at 0.1 μM [5] | inhibition at 5 µM [6] [%] | potency in [^3 H]-PN200 110 binding (in words) [2]
CCCCOP(=O)(CC(CCOc1ccc(Br)cc1)CP(=O)(OCCCC)OCCCC)OCCCC [Compound 91] | decrease blood pressure as markedly as the marketed calcium antagonists used as references | 15 % of control value | 0.420 |  |  |  |  |  |  |  |  | 
CCCCOP(=O)(CC(Cc1ccccc1)CP(=O)(OCCCC)OCCCC)OCCCC [Compound 73, Tetrabutyl 2-benzyl-1,3-propylidenediphosphonate] |  |  |  | 50 ± 3.8 | hypotensive activity superior to that of classical hypotensive drugs and of the calcium antagonists used as references | 46.2 ± 1.8 | potent pharmacological activity | strong inhibitors | 81 % of control value | 0.862 | 18.8 ± 11.2 | 
CCCCOP(=O)(CC(CCOc1ccc(OC)cc1)CP(=O)(OCCCC)OCCCC)OCCCC [Compound 92] | decrease blood pressure as markedly as the marketed calcium antagonists used as references | 0 % of control value | 0.000 |  |  |  |  |  |  |  |  | as potent as Nifedipine
CCCCOP(=O)(CC(Cc1cccc2ccccc12)CP(=O)(OCCCC)OCCCC)OCCCC [Compound 83] |  |  |  | 10.6 ± 0.5 |  | 62.5 ± 11.5 | potent pharmacological activity | strong inhibitors | 36 % of control value | 0.548 | 4.4 ± 0.6 | 
CCCCOP(=O)(CC(CCOc1ccc(Cl)cc1)CP(=O)(OCCCC)OCCCC)OCCCC [Compound 90] | decrease blood pressure as markedly as the marketed calcium antagonists used as references | 4 % of control value | 0.243 |  |  |  |  |  |  |  |  | as potent as Nifedipine
